# Source: PubChem BioAssay AID1963979 (Molecular Pharmacology Branch, DTP, NCI, 2024)
# Tested on: 361931-004-R-J1-PDC multicell spheroid viability
# Assay: Anticancer human tumor 361931-004-R-J1-PDC patient-derived colon adenocarcinoma cell line growth inhibition [PI3K]
# Conditions: for IC50: curve of first compound; for viability, T/C: stronger effect = lower value
# Outline: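 Tumor cells grown as multi-cell spheroids with HUVEC endothelial cells and MSC fibroblast-like stroma were treated with targeted agents combined with inavolisib, alpelisib, duvelisib or copanlisib. Doses fell in half-log steps from near clinical Cmax, else from 10 microM. Viability was measured.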
# [1] = second compound 0.0316 µM, first compound 0.0316 µM
# [2] = second compound 0.0316 µM, first compound 0.1 µM
# [3] = second compound 0.0316 µM, first compound 0.316 µM
# [4] = second compound 0.0316 µM, first compound 1 µM
# [5] = second compound 0.0316 µM, first compound 3.16 µM
# [6] = second compound 0.0316 µM, first compound 10 µM
# [7] = second compound 0.1 µM, first compound 0.0316 µM
# [8] = second compound 0.1 µM, first compound 0.1 µM
# [9] = second compound 0.1 µM, first compound 0.316 µM
# [10] = second compound 0.1 µM, first compound 1 µM
# [11] = second compound 0.1 µM, first compound 3.16 µM
# [12] = second compound 0.1 µM, first compound 10 µM
# [13] = second compound 0.316 µM, first compound 0.0316 µM
# [14] = second compound 0.316 µM, first compound 0.1 µM
# [15] = second compound 0.316 µM, first compound 0.316 µM
# [16] = second compound 0.316 µM, first compound 1 µM
# [17] = second compound 0.316 µM, first compound 3.16 µM
# [18] = second compound 0.316 µM, first compound 10 µM
# [19] = second compound 1 µM, first compound 0.0316 µM
# [20] = second compound 1 µM, first compound 0.1 µM
# [21] = second compound 1 µM, first compound 0.316 µM
# [22] = second compound 1 µM, first compound 1 µM
# [23] = second compound 1 µM, first compound 3.16 µM
# [24] = second compound 1 µM, first compound 10 µM
# [25] = second compound 3.16 µM, first compound 0.0316 µM
# [26] = second compound 3.16 µM, first compound 0.1 µM
# [27] = second compound 3.16 µM, first compound 0.316 µM
# [28] = second compound 3.16 µM, first compound 1 µM
# [29] = second compound 3.16 µM, first compound 3.16 µM
# [30] = second compound 3.16 µM, first compound 10 µM
# [31] = second compound 10 µM, first compound 0.0316 µM
# [32] = second compound 10 µM, first compound 0.1 µM
# [33] = second compound 10 µM, first compound 0.316 µM
# [34] = second compound 10 µM, first compound 1 µM
# [35] = second compound 10 µM, first compound 3.16 µM
# [36] = second compound 10 µM, first compound 10 µM
# 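Further: spheroids exposed to agents for seven days before readout.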
compound,measurement,setting,value
CC1(C)CCC(CN2CCN(c3ccc(C(=O)NS(=O)(=O)c4ccc(NCC5CCOCC5)c([N+](=O)[O-])c4)c(Oc4cnc5[nH]ccc5c4)c3)CC2)=C(c2ccc(Cl)cc2)C1 + Cc1nc(NC(=O)N2CCCC2C(N)=O)sc1-c1ccnc(C(C)(C)C(F)(F)F)c1,IC50,second compound 0.0316 µM,4.14 µM
same,IC50,second compound 0.1 µM,4.3 µM
same,IC50,second compound 0.316 µM,4.19 µM
same,IC50,second compound 1 µM,3.89 µM
same,IC50,second compound 3.16 µM,2.71 µM
same,IC50,second compound 10 µM,1.52 µM
same,"viability, T/C",[1],108%
same,"viability, T/C",[2],100%
same,"viability, T/C",[3],111%
same,"viability, T/C",[4],99.7%
same,"viability, T/C",[5],64.9%
same,"viability, T/C",[6],1.71%
same,"viability, T/C",[7],106%
same,"viability, T/C",[8],100%
same,"viability, T/C",[9],108%
same,"viability, T/C",[10],99.1%
same,"viability, T/C",[11],67.8%
same,"viability, T/C",[12],1.27%
same,"viability, T/C",[13],104%
same,"viability, T/C",[14],107%
same,"viability, T/C",[15],96%
same,"viability, T/C",[16],93%
same,"viability, T/C",[17],65.6%
same,"viability, T/C",[18],1.32%
same,"viability, T/C",[19],87.1%
same,"viability, T/C",[20],102%
same,"viability, T/C",[21],84.8%
same,"viability, T/C",[22],83.1%
same,"viability, T/C",[23],61.2%
same,"viability, T/C",[24],0.97%
same,"viability, T/C",[25],85.7%
same,"viability, T/C",[26],77%
same,"viability, T/C",[27],78.2%
same,"viability, T/C",[28],80%
same,"viability, T/C",[29],45.4%
same,"viability, T/C",[30],1.07%
same,"viability, T/C",[31],65.1%
same,"viability, T/C",[32],67.7%
same,"viability, T/C",[33],60.3%
same,"viability, T/C",[34],62.2%
same,"viability, T/C",[35],29%
same,"viability, T/C",[36],1.43%
CC(Cn1ccc(-c2ccc(C#N)c(Cl)c2)n1)NC(=O)c1cc(C(C)O)[nH]n1 (stereo unspecified) + CC(Nc1ncnc2nc[nH]c12)c1cc2cccc(Cl)c2c(=O)n1-c1ccccc1,IC50,second compound 0.0316 µM,> 10 µM
same,IC50,second compound 0.1 µM,> 10 µM
same,IC50,second compound 0.316 µM,> 10 µM
same,IC50,second compound 1 µM,> 10 µM
same,IC50,second compound 3.16 µM,> 10 µM
same,IC50,second compound 10 µM,> 10 µM
same,"viability, T/C",[1],102%
same,"viability, T/C",[2],92.6%
same,"viability, T/C",[3],96.7%
same,"viability, T/C",[4],90%
same,"viability, T/C",[5],104%
same,"viability, T/C",[6],102%
same,"viability, T/C",[7],105%
same,"viability, T/C",[8],96.9%
same,"viability, T/C",[9],103%
same,"viability, T/C",[10],101%
same,"viability, T/C",[11],106%
same,"viability, T/C",[12],99.4%
same,"viability, T/C",[13],102%
same,"viability, T/C",[14],103%
same,"viability, T/C",[15],104%
same,"viability, T/C",[16],103%
same,"viability, T/C",[17],108%
same,"viability, T/C",[18],97.4%
same,"viability, T/C",[19],99.5%
same,"viability, T/C",[20],102%
same,"viability, T/C",[21],96.4%
same,"viability, T/C",[22],98%
same,"viability, T/C",[23],100%
same,"viability, T/C",[24],106%
same,"viability, T/C",[25],98.8%
same,"viability, T/C",[26],104%
same,"viability, T/C",[27],100%
same,"viability, T/C",[28],104%
same,"viability, T/C",[29],103%
same,"viability, T/C",[30],104%
same,"viability, T/C",[31],105%
same,"viability, T/C",[32],95.9%
same,"viability, T/C",[33],100%
same,"viability, T/C",[34],99%
same,"viability, T/C",[35],109%
same,"viability, T/C",[36],98.7%
C#Cc1c(F)ccc2cc(O)cc(-c3ncc4c(N5CC6CCC(C5)N6)nc(OCC56CCCN5CC(F)C6)nc4c3F)c12 (stereo unspecified) + CC(Nc1ncnc2nc[nH]c12)c1cc2cccc(Cl)c2c(=O)n1-c1ccccc1,IC50,second compound 0.0316 µM,> 10 µM
same,IC50,second compound 0.1 µM,> 10 µM
same,IC50,second compound 0.316 µM,> 10 µM
same,IC50,second compound 1 µM,> 10 µM
same,IC50,second compound 3.16 µM,> 10 µM
same,IC50,second compound 10 µM,> 10 µM
same,"viability, T/C",[1],98.8%
same,"viability, T/C",[2],105%
same,"viability, T/C",[3],105%
same,"viability, T/C",[4],102%
same,"viability, T/C",[5],98.9%
same,"viability, T/C",[6],95.1%
same,"viability, T/C",[7],105%
same,"viability, T/C",[8],103%
same,"viability, T/C",[9],96.8%
same,"viability, T/C",[10],100%
same,"viability, T/C",[11],104%
same,"viability, T/C",[12],93%
same,"viability, T/C",[13],106%
same,"viability, T/C",[14],99.7%
same,"viability, T/C",[15],105%
same,"viability, T/C",[16],100%
same,"viability, T/C",[17],102%
same,"viability, T/C",[18],93.3%
same,"viability, T/C",[19],97.7%
same,"viability, T/C",[20],98.6%
same,"viability, T/C",[21],100%
same,"viability, T/C",[22],95.2%
same,"viability, T/C",[23],104%
same,"viability, T/C",[24],84.4%
same,"viability, T/C",[25],104%
same,"viability, T/C",[26],107%
same,"viability, T/C",[27],103%
same,"viability, T/C",[28],106%
same,"viability, T/C",[29],107%
same,"viability, T/C",[30],81.9%
same,"viability, T/C",[31],104%
same,"viability, T/C",[32],99.8%
same,"viability, T/C",[33],91.9%
same,"viability, T/C",[34],91%
same,"viability, T/C",[35],90%
same,"viability, T/C",[36],79%
